In patent publication EP4417201A1, “PHARMACEUTICAL COMPOSITIONS FOR USE IN CANCER TREATMENT” (Robert Bosch Gesellschaft für medizinische Forschung mbH, priority 2023, dated 2024) one finds tubulin polymerization data, which are given here for 1 molecule.

The assay addresses T1, purified porcine tubulin (Sus scrofa, UniProt P02550+P02554).
T1 construct: purchased Cytoskeleton, Denver, CO, USA BK006P
Nature of the assay: Tubulin polymerization assay. The assay is classed as biochemical. The following applies: 10 µM, absorbance at 340 nm, 35°C. How it is done: A tubulin polymerization assay kit (part# BK006P, Cytoskeleton, Denver, CO, USA) was used to address the direct effects of chemical compounds on tubulin polymerization dynamics. A porcine >99% pure tubulin preparation (3 mg/ml) free of microtubule-associated proteins in 80 mM PIPES pH 6.9, 2 mM MgCl2, 0.5 mM EGTA, 1 mM GTP, and 10.2% glycerol was incubated with Formula A-1 (100 µM), Formula A-2(100 µM), paclitaxel (10 µM), or buffer. Microtubule polymerization was initiated by tubulin addition; changes in microtubule turbidity were measured kinetically at 340 nm at 35°C (EnSpire Multimode Plate Reader 2300, PerkinElmer).
To determine whether the influence of compounds of Formula A-1 and Formula A-2 on microtubule formation was due to on-target activity, the direct effect of chalcone compounds of Formula A on tubulin polymerization rates was examined by incubation of purified porcine tubulin with Formula A-1 or Formula A-2 and comparison of the results with those of paclitaxel, a well-established microtubule-stabilizing agent. Microtubule formation was measured kinetically at an absorbance of 340 nm.

T1 sequence (P02550 whole entry): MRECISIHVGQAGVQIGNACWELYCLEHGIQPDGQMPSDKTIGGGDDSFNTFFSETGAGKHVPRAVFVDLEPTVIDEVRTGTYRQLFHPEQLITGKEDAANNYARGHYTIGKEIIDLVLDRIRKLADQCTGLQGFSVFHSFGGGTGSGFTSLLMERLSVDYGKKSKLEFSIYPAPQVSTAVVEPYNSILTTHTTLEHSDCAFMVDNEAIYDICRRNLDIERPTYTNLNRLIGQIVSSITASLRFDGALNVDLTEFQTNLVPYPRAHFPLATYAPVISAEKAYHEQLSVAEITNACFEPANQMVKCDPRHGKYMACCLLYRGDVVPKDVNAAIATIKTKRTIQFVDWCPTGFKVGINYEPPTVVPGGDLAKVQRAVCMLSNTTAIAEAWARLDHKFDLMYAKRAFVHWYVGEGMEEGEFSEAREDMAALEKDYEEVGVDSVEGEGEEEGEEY
T1 sequence (P02554 whole entry): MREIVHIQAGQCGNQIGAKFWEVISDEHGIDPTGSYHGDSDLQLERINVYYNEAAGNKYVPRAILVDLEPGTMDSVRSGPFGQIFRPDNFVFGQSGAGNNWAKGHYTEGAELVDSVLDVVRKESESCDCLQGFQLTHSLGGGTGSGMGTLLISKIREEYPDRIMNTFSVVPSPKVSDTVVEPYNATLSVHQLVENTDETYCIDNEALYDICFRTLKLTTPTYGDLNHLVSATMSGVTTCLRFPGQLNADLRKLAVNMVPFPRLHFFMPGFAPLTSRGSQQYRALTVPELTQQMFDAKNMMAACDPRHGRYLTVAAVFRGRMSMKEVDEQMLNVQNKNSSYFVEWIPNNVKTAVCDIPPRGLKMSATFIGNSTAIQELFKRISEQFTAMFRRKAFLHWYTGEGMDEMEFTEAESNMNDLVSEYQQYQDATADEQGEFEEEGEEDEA

With `CC(=O)O[C@H]1C(=O)[C@@]2(C)[C@H]([C@H](OC(=O)c3ccccc3)[C@]3(O)C[C@H](OC(=O)[C@H](O)[C@@H](NC(=O)c4ccccc4)c4ccccc4)C(C)=C1C3(C)C)[C@]1(OC(C)=O)CO[C@@H]1C[C@@H]2O` [paclitaxel], the tubulin polymerization entry was “the kinetics of tubulin polymerization is enhanced and the polymerization equilibrium shifts towards polymerized tubulin”.
